Laboratory results reported in patent publication US10994015B2, “EGFR proteolysis targeting chimeric molecules and associated methods of use” (Arvinas Operations, Inc., priority 2016, dated 2021).

Tests used:
EGFR L858R/T790M = EGFR L858R/T790M (Homo sapiens (Human), UniProt P00533, L858R/T790M); assay: TR-FRET assay for ERBB kinases; type: biochemical; details: geometric mean if measured more than once
Method in brief: (§1)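 Read-out is TR-FRET between a terbium anti-phosphotyrosine (pY20) antibody and phosphorylated fluorescein-labelled poly-GluTyr, excited at 340 nm with donor 490 nm and acceptor 520 nm emission. Phosphorylation ran 10 min at room temperature after a 10 min compound–enzyme pre-incubation. The substrate mix contained 3 mM ATP.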

EGFR L858R/T790M/C797S = EGFR L858R/T790M/C797S (Homo sapiens (Human), UniProt P00533, C797S/L858R/T790M); assay: TR-FRET assay for ERBB kinases; type: biochemical; details: geometric mean if measured more than once
Method in brief: as §1

EGFR WT = EGFR WT (Homo sapiens (Human), UniProt P00533); assay: TR-FRET assay for ERBB kinases; type: biochemical; details: geometric mean if measured more than once
Method in brief: as §1

EGFR Exon20NPG = EGFR Exon20NPG (Homo sapiens (Human), UniProt P00533, INS770NPG); assay: TR-FRET assay for ERBB kinases; type: biochemical; details: geometric mean if measured more than once
Method in brief: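 Compounds pre-incubated 10 min with kinase in HEPES pH 7.5 buffer (MgCl2, DTT, Pluronic), then reaction started with substrate mix (3 mM ATP, 30 µM fluorescein-poly-GluTyr, stock levels) for 10 min at room temperature. EDTA-quenched, detected by Tb-pY20 antibody TR-FRET (520/490 nm emission).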

[1] = target: EGFR L858R/T790M double mutant (H1975) (Homo sapiens (Human), UniProt P00533, L858R/T790M); assay: EGFR protein degradation assay (Western blot); type: cell-based; details: 72 hours, 300 nM to 10 nM
Method in brief: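 Cells carrying the relevant EGFR form were plated at 300,000 cells per well in 6-well plates and left to attach overnight. After washing in ice-cold PBS, cells were lysed in 400 μl lysis buffer with protease inhibitors, scraped, and clarified at 10 000 rpm for 10 minutes. EGFR levels were then assessed by Western blot with tubulin as loading control.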

[2] = target: EGFR L858R/T790M/C797S triple mutant (H520*) (Homo sapiens (Human), UniProt P00533, C797S/L858R/T790M); assay: EGFR protein degradation assay (Western blot); type: cell-based; details: 72 hours, 300 nM to 10 nM
Procedure: EGFR Protein Degradation assay
Cells were incubated overnight at 37° C., 5% CO2 prior to compound addition. A 10 mM compound stock in DMSO was serially diluted in DMSO to provide the following stock concentrations: 1, 0.3, 0.1, 0.03 and 0.01 mM. An appropriate volume of each compound dilution, together with a DMSO vehicle control, was added to media to provide a 2× compound solution. […] At the end of the compound treatment, cells were washed once with ice-cold phosphate-buffered saline (PBS) and treated with lysis solution (1× lysis buffer, Cell Signaling Technologies (CST #9803) supplemented with Piarce™ protease inhibitors, #A32953, Thermo Fisher Scientific, TFS). Lysates were collected and clarified of cell debris by spinning at 10K rpm for 10 minutes. A specific volume of supernatant was retrieved for protein quantification (Pierce™ BCA kit, TFS #23225) and for Western analysis. Loading buffer supplemented with EDTA and reducing agent was added to each supernatant. A specific volume of supernatant (determined by protein assay: […] loaded per sample) was loaded into a NuPAGE™ 4-12% Bis-Tris gel (TFS). Samples were run at 165V in MOPS running buffer for 2 hours and then transferred to PVDF blotting membrane using a dry blotting system (iBlot2, TFS). Membranes were blocked in Tris-buffered saline supplemented with Tween, 0.1% (TBST) containing 5% non-fat dry milk, (AmericanBio). Following block, membranes were washed once with TBST. […] Membranes were washed 3× with TBST prior to addition of secondary antibody (1:10 000, anti-rabbit HRP-linked, CST #7074) in TBST with 3% BSA and then incubated at room temperature for one hour. Membranes were then washed 3× with TBS and signal developed by exposure to developer (SuperSignal West Femto, TFS) for 5 minutes. Membranes were then immediately imaged using a BioRad Chemidoc.

EGFR L858R/T790M, sequence (P00533 25-1210 T790M/L858R): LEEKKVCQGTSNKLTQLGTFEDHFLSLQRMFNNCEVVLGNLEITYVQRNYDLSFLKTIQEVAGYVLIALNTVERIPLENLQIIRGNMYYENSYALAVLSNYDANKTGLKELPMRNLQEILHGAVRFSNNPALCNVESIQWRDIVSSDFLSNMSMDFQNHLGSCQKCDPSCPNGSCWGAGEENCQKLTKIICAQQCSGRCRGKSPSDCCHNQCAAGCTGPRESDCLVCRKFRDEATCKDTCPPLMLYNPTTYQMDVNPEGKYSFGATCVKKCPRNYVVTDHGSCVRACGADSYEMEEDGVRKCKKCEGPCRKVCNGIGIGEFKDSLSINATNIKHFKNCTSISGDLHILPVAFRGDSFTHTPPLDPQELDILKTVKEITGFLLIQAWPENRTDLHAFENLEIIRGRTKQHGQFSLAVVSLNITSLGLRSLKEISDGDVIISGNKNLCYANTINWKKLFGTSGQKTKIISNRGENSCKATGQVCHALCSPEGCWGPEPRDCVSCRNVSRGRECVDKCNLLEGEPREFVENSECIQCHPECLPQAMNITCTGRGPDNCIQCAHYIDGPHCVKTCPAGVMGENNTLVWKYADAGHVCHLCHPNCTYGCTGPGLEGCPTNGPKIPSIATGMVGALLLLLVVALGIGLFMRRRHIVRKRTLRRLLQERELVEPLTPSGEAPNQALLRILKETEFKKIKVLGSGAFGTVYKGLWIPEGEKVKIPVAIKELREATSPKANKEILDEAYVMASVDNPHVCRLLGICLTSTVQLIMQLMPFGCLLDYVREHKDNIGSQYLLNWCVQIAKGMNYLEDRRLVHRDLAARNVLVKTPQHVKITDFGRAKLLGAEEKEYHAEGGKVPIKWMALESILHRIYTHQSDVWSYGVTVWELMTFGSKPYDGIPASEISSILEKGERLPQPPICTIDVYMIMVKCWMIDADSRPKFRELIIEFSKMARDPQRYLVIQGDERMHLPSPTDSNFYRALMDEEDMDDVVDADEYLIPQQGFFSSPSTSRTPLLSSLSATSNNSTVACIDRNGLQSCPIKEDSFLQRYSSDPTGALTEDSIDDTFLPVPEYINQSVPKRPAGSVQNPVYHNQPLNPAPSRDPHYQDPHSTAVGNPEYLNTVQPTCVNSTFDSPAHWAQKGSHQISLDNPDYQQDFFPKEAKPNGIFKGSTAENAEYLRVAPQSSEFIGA
EGFR L858R/T790M double mutant (H1975), sequence (P00533 25-1210 T790M/L858R): as above
EGFR WT, sequence (P00533 25-1210): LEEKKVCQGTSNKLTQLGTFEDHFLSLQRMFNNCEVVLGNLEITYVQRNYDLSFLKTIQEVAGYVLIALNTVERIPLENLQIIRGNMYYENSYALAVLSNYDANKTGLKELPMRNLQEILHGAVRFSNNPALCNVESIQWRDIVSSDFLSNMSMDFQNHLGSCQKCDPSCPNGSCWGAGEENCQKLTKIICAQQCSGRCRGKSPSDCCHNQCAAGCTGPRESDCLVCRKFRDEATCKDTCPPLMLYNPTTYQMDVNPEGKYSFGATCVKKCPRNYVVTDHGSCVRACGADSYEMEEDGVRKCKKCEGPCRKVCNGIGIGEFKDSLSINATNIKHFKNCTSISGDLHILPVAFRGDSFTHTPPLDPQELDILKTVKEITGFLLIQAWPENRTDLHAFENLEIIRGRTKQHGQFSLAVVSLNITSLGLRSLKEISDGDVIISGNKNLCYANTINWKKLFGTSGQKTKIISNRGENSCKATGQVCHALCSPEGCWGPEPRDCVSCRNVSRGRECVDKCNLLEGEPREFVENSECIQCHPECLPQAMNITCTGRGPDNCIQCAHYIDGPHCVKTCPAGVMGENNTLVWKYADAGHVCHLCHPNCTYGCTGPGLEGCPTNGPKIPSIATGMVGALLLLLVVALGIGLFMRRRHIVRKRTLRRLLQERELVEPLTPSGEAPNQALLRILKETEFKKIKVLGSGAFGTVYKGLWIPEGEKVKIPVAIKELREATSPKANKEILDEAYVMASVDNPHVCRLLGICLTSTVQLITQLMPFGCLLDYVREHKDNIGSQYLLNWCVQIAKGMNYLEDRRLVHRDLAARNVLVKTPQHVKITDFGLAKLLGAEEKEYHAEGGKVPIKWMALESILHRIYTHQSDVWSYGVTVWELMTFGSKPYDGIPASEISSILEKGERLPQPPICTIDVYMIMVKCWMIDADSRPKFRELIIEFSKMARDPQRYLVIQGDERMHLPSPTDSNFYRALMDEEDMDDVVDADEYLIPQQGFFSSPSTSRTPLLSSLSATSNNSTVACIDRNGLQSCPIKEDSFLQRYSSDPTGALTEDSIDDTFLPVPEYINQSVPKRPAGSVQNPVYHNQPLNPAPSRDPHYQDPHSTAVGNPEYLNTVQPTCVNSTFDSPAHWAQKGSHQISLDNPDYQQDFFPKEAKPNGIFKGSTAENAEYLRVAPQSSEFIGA
EGFR Exon20NPG, sequence (P00533 other isoform, or with tags, fused parts or gaps del 1-694/ins NPG behind 770 limits assumed): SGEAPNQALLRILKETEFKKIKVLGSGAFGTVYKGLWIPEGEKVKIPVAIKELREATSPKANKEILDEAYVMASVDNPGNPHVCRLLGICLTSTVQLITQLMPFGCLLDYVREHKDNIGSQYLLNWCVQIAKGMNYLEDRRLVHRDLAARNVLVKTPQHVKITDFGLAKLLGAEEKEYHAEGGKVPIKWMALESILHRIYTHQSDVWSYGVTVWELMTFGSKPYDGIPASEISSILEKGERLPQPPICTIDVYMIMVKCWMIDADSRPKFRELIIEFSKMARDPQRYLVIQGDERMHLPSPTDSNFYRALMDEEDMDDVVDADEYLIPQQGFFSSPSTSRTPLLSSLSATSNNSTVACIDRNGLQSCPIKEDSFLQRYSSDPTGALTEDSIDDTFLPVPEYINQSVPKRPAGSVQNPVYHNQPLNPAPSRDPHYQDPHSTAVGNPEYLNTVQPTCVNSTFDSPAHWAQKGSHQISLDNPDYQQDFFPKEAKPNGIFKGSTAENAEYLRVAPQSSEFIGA

Row | Compound | IC50 (EGFR L858R/T790M) | IC50 (EGFR L858R/T790M/C797S) | IC50 (EGFR WT) | IC50 (EGFR Exon20NPG) | EGFR protein remaining, EGFR L858R/T790M double mutant [1] | EGFR protein remaining, EGFR L858R/T790M/C797S triple mutant [2]
1 | O=C1CCC(N2C(=O)c3ccc(OCCOCCOCC#Cc4cccc5c4C(=O)N([C@@H](C(=O)Nc4nccs4)c4cc(F)ccc4O)C5)cc3C2=O)C(=O)N1 (stereo partly drawn) [compound 261] | 3.5 µM | 0.18 µM | 2.2 µM | 4.9 µM | C (>80% EGFR protein remaining after 72 hours of incubation with the test compound at a concentration of 300 nM) | C (>80% EGFR protein remaining after 72 hours of incubation with the test compound at a concentration of 300 nM)
2 | Cc1ncsc1-c1ccc(CNC(=O)[C@@H]2C[C@@H](O)CN2C(=O)[C@H](C(C)C)N2Cc3ccccc3C2=O)c(OCCOCCOCC#Cc2cccc3c2C(=O)N([C@@H](C(=O)Nc2nccs2)c2cc(F)ccc2O)C3)c1 (single isomer, unassigned) [Example 256] | 14 µM | 1.4 µM | 2.5 µM | 6.1 µM | C (>80% EGFR protein remaining after 72 hours of incubation with the test compound at a concentration of 300 nM) | C (>80% EGFR protein remaining after 72 hours of incubation with the test compound at a concentration of 300 nM)
3 | O=C1CCC(N2C(=O)c3cccc(NCCOCCOCCOCCOCC#Cc4cccc5c4C(=O)N([C@@H](C(=O)Nc4nccs4)c4cc(F)ccc4O)C5)c3C2=O)C(=O)N1 (stereo partly drawn) [compound 266] | > 30 µM | 2.6 µM | 10 µM | > 30 µM | C (>80% EGFR protein remaining after 72 hours of incubation with the test compound at a concentration of 300 nM) | C (>80% EGFR protein remaining after 72 hours of incubation with the test compound at a concentration of 300 nM)
4 | O=C1CCC(N2C(=O)c3ccc(OCCOCCOCCOCCOCC#Cc4cccc5c4C(=O)N([C@@H](C(=O)Nc4nccs4)c4cc(F)ccc4O)C5)cc3C2=O)C(=O)N1 (stereo partly drawn) [compound 262] | 0.43 µM | 0.25 µM | 3.7 µM | 7.4 µM | C (>80% EGFR protein remaining after 72 hours of incubation with the test compound at a concentration of 300 nM) | C (>80% EGFR protein remaining after 72 hours of incubation with the test compound at a concentration of 300 nM)
5 | Cc1ncsc1-c1ccc(CNC(=O)[C@@H]2C[C@@H](O)CN2C(=O)[C@@H](NC(=O)COCCOCCOCCOCC#Cc2cccc3c2C(=O)N(C(C(=O)Nc2nccs2)c2cc(F)ccc2O)C3)C(C)(C)C)cc1 (stereo partly drawn) [compound 254] | 1 µM | 0.1 µM | 1.1 µM | 5.7 µM | C (>80% EGFR protein remaining after 72 hours of incubation with the test compound at a concentration of 300 nM) | C (>80% EGFR protein remaining after 72 hours of incubation with the test compound at a concentration of 300 nM)
6 | O=C1CCC(N2C(=O)c3cccc(NCCOCCOCCOCCOCCOCC#Cc4cccc5c4C(=O)N([C@@H](C(=O)Nc4nccs4)c4cc(F)ccc4O)C5)c3C2=O)C(=O)N1 (stereo partly drawn) [compound 267] | 30 µM | 1.4 µM | 30 µM | 30 µM | C (>80% EGFR protein remaining after 72 hours of incubation with the test compound at a concentration of 300 nM) | C (>80% EGFR protein remaining after 72 hours of incubation with the test compound at a concentration of 300 nM)
7 | O=C1CCC(N2C(=O)c3cccc(NCCOCCOCCOCC#Cc4cccc5c4C(=O)N([C@@H](C(=O)Nc4nccs4)c4cc(F)ccc4O)C5)c3C2=O)C(=O)N1 (stereo partly drawn) [compound 265] | 27 µM | 0.29 µM | 3.6 µM | 20 µM | C (>80% EGFR protein remaining after 72 hours of incubation with the test compound at a concentration of 300 nM) | C (>80% EGFR protein remaining after 72 hours of incubation with the test compound at a concentration of 300 nM)
